Reference: US7732471B2, “6-oxazol-4-ylmetholmethoxy-alko-alkoxymethyl substituted benzoic acid derivatives forming peroxisome proliferator—activated receptor (PPAR) ligands, process for their preparation and methods of use thereof” (Sanofi-Aventis, priority 2005, dated 2010)

Columns and labels:
human PPARalpha = biological target: T1, human PPARalpha (Homo sapiens, UniProt Q07869); experiment: Cellular PPARalpha assay (stably transfected HEK luciferase reporter cell line); format: cell-based; conditions: PPARalpha reporter cell line (HEK, GR-GAL4-humanPPARalpha-LBD), 24 h incubation
T1 construct: human PPARalpha receptor (amino acids S167-Y468); expressed in transfected cells; host or cells: HEK cells, stably transfected (pcDNA3 construct)
T1 sequence (Q07869 167-468): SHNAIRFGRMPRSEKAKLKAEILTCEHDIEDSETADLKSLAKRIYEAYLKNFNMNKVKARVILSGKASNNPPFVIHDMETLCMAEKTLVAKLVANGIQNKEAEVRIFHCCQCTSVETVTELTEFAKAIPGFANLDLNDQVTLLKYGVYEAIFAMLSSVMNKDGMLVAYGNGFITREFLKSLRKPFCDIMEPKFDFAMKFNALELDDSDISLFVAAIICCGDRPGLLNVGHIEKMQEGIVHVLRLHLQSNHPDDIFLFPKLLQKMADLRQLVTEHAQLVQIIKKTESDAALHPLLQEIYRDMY
Protocol: Determination of EC50 Values of PPAR Agonists in the Cellular PPARalpha Assay
The potency of substances which bind to human PPARalpha and activate it in an agonistic manner is analyzed using a stably transfected HEK cell line (HEK=human embryonic kidney) which is referred to here as PPARalpha reporter cell line. It contains two genetic elements, a luciferase reporter element (pdeltaM-GAL4-Luc-Zeo) and a PPARalpha fusion protein (GR-GAL4-humanPPARalpha-LBD) which mediates expression of the luciferase reporter element depending on a PPARalpha ligand. The stably and constitutively expressed fusion protein GR-GAL4-humanPPARalpha-LBD binds in the cell nucleus of the PPARalpha reporter cell line via the GAL4 protein portion to the GAL4 DNA binding motifs 5′-upstream of the luciferase reporter element which is stably integrated in the genome of the cell line. There is only little expression of the luciferase reporter gene without addition of a PPARalpha ligand if fatty acid-depleted fetal calf serum (cs-FCS) is used in the assay. PPARalpha ligands bind and activate the PPARalpha fusion protein and thereby bring about expression of the luciferase reporter gene. The luciferase which is formed can be detected by means of chemiluminescence via an appropriate substrate.
The PPARalpha reporter cell line was prepared in two steps. Firstly, the luciferase reporter element was constructed and stably transfected into HEK cells. For this purpose, five binding sites of the yeast transcription factor GAL4 (in each case 5′-CGGAGTACTGTCCTCCGAG-3′) were cloned in 5′-upstream of a 68 bp-long minimal MMTV promoter (Genbank Accession #V01175). The minimal MMTV promoter section contains a CCAAT box and a TATA element in order to enable efficient transcription by RNA polymerase II. The cloning and sequencing of the GAL4-MMTV construct took place in analogy to the description of Sambrook J. et. al. (Molecular cloning, Cold Spring Harbor Laboratory Press, 1989). Then the complete Photinus pyralis luciferase gene (Genbank Accession #M15077) was cloned in 3′-downstream of the GAL4-MMTV element. After sequencing, the luciferase reporter element consisting of five GAL4 binding sites, MMTV promoter and luciferase gene was subcloned into a plasmid which confers zeozin resistance in order to obtain the plasmid pdeltaM-GAL4-Luc-Zeo. This vector was transfected into HEK cells in accordance with the statements in Ausubel, F. M. et al. (Current protocols in molecular biology, Vol. 1-3, John Wiley & Sons, Inc., 1995).
In a second step, the PPARalpha fusion protein (GR-GAL4-humanPPARalpha-LBD) was introduced into the stable cell clone described. For this purpose, initially the cDNA coding for the N-terminal 76 amino acids of the glucocorticoid receptor (Genbank Accession #P04150) was linked to the cDNA section coding for amino acids 1-147 of the yeast transcription factor GAL4 (Genbank Accession #P04386). The cDNA of the ligand-binding domain of the human PPARalpha receptor (amino acids S167-Y468; Genbank Accession #S74349) was cloned in at the 3′ end of this GR-GAL4 construct. The fusion construct prepared in this way (GR-GAL4-humanPPARalpha-LBD) was subcloned into the plasmid pcDNA3 (from Invitrogen) in order to enable constitutive expression therein by the cytomegalovirus promoter. This plasmid was linearized with a restriction endonuclease and stably transfected into the previously described cell clone containing the luciferase reporter element. The finished PPARalpha reporter cell line which contains a luciferase reporter element and constitutively expresses the PPARalpha fusion protein (GR-GAL4-humanPPARalpha-LBD) was isolated by selection with zeozin (0.5 mg/ml) and G418 (0.5 mg/ml).
The activity of PPARalpha agonists is determined in a 3-day assay which is described below: […]

human PPARgamma = biological target: T2, human PPARgamma (Homo sapiens, UniProt P37231); experiment: Cellular PPARgamma assay (transiently transfected HEK cells, luciferase reporter); format: cell-based; conditions: HEK cells transiently transfected with GAL4-humanPPARgammaLBD, 48 h incubation, firefly/Renilla luciferase ratio
T2 construct: human PPARgamma receptor (amino acids I152-Y475); expressed in transfected cells; host or cells: HEK cells, transiently transfected with pcDNA3-GAL4-humanPPARgammaLBD
T2 sequence (P37231 182-505 limits assumed): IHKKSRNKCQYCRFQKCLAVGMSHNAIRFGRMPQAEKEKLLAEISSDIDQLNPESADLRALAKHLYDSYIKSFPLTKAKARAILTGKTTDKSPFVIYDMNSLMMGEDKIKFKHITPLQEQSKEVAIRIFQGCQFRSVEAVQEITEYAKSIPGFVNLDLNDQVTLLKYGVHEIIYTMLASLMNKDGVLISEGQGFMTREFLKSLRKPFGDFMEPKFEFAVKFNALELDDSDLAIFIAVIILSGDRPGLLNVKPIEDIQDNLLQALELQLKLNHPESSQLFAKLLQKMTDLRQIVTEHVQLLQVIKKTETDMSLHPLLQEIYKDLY
From the text: Determination of EC50 Values of PPAR Agonists in the Cellular PPARgamma Assay
A transient transfection system is employed to determine the cellular PPARgamma activity of PPAR agonists. It is based on the use of a luciferase reporter plasmid (pGL3basic-5xGAL4-TK) and of a PPARgamma expression plasmid (pcDNA3-GAL4-humanPPARgammaLBD). Both plasmids are transiently transfected into human embryonic kidney cells (HEK cells). There is then expression in these cells of the fusion protein GAL4-humanPPARgammaLBD which binds to the GAL4 binding sites of the reporter plasmid. In the presence of a PPARgamma-active ligand, the activated fusion protein GAL4-humanPPARgammaLBD induces expression of the luciferase reporter gene, which can be detected in the form of a chemiluminescence signal after addition of a luciferase substrate. As a difference from the stably transfected PPARalpha reporter cell line, in the cellular PPARgamma assay the two components (luciferase reporter plasmid and PPARgamma expression plasmid) are transiently transfected into HEK cells because stable and permanent expression of the PPARgamma fusion protein is cytotoxic.
The luciferase reporter plasmid pGL3basic-5xGAL4-TK is based on the vector pGL3basic from Promega. The reporter plasmid is prepared by cloning five binding sites of the yeast transcription factor GAL4 (each binding site with the sequence 5′-CTCGGAGGACAGTACTCCG-3′), together with a 160 bp-long thymidine kinase promoter section (Genbank Accession #AF027128) 5′-upstream into pGL3basic. 3′-downstream of the thymidine kinase promoter is the complete luciferase gene from Photinus pyralis (Genbank Accession #M15077), which is already a constituent of the plasmid pGL3basic used. The cloning and sequencing of the reporter plasmid pGL3basic-5xGAL4-TK took place in analogy to the description in Sambrook J. et. al. (Molecular cloning, Cold Spring Harbor Laboratory Press, 1989).
The PPARgamma expression plasmid pcDNA3-GAL4-humanPPARgammaLBD was prepared by first cloning the cDNA coding for amino acids 1-147 of the yeast transcription factor GAL4 (Genbank Accession #P04386) into the plasmid pcDNA3 (from Invitrogen) 3′-downstream of the cytomegalovirus promoter. Subsequently, the cDNA of the ligand-binding domain (LBD) of the human PPARgamma receptor (amino acids I152-Y475; Accession #g1480099) 3′-downstream of the GAL4 DNA binding domain was cloned. Cloning and sequencing of the PPARgamma expression plasmid pcDNA3-GAL4-humanPPARgammaLBD again took place in analogy to the description in Sambrook J. et. al. (Molecular cloning, Cold Spring Harbor Laboratory Press, 1989). Besides the luciferase reporter plasmid pGL3basic-5xGAL4-TK and the PPARgamma expression plasmid pcDNA3-GAL4-humanPPARgammaLBD, also used for the cellular PPARgamma assay are the reference plasmid pRL-CMV (from Promega) and the plasmid pBluescript SK(+) from Stratagene. All four plasmids were prepared using a plasmid preparation kit from Qiagen, which ensured a plasmid quality with a minimal endotoxin content, before transfection into HEK cells.
The activity of PPARgamma agonists is determined in a 4-day assay which is described below. Before the transfection, HEK cells are cultivated in DMEM medium (#41965-039, Invitrogen) which is mixed with the following additions: 10% FCS (#16000-044, Invitrogen), 1% penicillin-streptomycin solution (#15140-122, Invitrogen) and 2 mM L-glutamine (#25030-024, Invitrogen).
A transfection mixture (solution A) which contains all four plasmids previously described in a DMEM medium, is prepared. The following amounts are used to make up 3 ml of solution A for each 96-well microtiter plate for an assay: 2622 μl of antibiotic- and serum-free DMEM medium (#41965-039, Invitrogen), 100 μl of reference plasmid pRL-CMV (1 ng/μl), 100 μl of luciferase reporter plasmid pGL3basic-5xGAL4-TK (10 ng/μl), 100 μl of PPARgamma expression plasmid pcDNA3-GAL4-humanPPARgammaLBD (100 ng/μl) and 78 μl of plasmid pBluescript SK(+) (500 ng/μl). […]

SMILES	EC50 (human PPARalpha) [nM]	EC50 (human PPARgamma) [nM]
Cc1ccc(-c2nc(COCCCOCc3cccc(C)c3C(=O)O)c(C3CCCCC3)o2)cc1 [Example 22, 2-Methyl-6-{3-[5-cyclohexyl-2-p-tolyloxazol-4-ylmethoxy]propoxymethyl}benzoic acid]	22	710
Cc1ccc(-c2nc(COCCCOCc3cccc(C)c3C(=O)O)c(-c3ccccc3)o2)cc1 [Example 23, 2-Methyl-6-[3-(5-phenyl-2-p-tolyloxazol-4-ylmethoxy)propoxymethyl]benzoic acid]	88	1800
COc1cccc(-c2nc(COCC(C)(C)COCc3cccc(C)c3C(=O)O)c(C)o2)c1 [Example 27, 2-{3-[2-(3-Methoxyphenyl)-5-methyloxazol-4-ylmethoxy]-2,2-dimethylpropoxymethyl}-6-methylbenzoic acid]	13	390
COc1cccc(-c2nc(COCCCCOCc3cccc(C)c3C(=O)O)c(C)o2)c1 [Example 31, 2-Methyl-6-{4-[2-(3-methoxyphenyl)-5-methyloxazol-4-ylmethoxy]butoxymethyl}-benzoic acid]	1.4	17
Cc1cccc(COCCCCOCc2nc(-c3cccc(C(F)(F)F)c3)oc2C(C)C)c1C(=O)O [Example 32, 2-{4-[5-Isopropyl-2-(3-trifluoromethylphenyl)oxazol-4-ylmethoxy]butoxymethyl}-6-methylbenzoic acid]	1.6	72
Cc1cccc(COCCCCOCc2nc(-c3ccc(-c4ccccc4)cc3)oc2C)c1C(=O)O [Example 33, 2-Methyl-6-[4-(2-p-biphenyl-5-methyloxazol-4-ylmethoxy)butoxymethyl]benzoic acid]	21	14

The remaining compounds from weak to strong by EC50 (human PPARalpha), led by results:

EC50 (human PPARalpha) [nM]	EC50 (human PPARgamma) [nM]	SMILES
11	40	Cc1cccc(COCCCOCc2nc(-c3ccc(Oc4ccccc4)cc3)oc2C)c1C(=O)O [Example 8, 2-Methyl-6-{3-[5-methyl-2-(4-phenoxyphenyl)oxazol-4-ylmethoxy]propoxymethyl}-benzoic acid]
8.7	630	COc1ccc(-c2nc(COCCCOCc3cccc(C)c3C(=O)O)c(C)o2)cc1OC [Example 11, 2-Methyl-6-{3-[5-methyl-2-(3,4-dimethoxyphenyl)oxazol-4-ylmethoxy]propoxymethyl}-benzoic acid]
4.2	150	Cc1cccc(COCCCOCc2nc(-c3ccc(-c4ccccc4)cc3)oc2C)c1C(=O)O [Example 3, 2-Methyl-6-[3-(5-methyl-2-p-biphenyloxazol-4-ylmethoxy)propoxymethyl]benzoic acid]
3.7	91	CCc1oc(-c2cccc(OC)c2)nc1COCCCOCc1cccc(C)c1C(=O)O [Example 17]
1	> 10000	Cc1cccc(COCCCOCc2coc(-c3ccccc3)n2)c1C(=O)O [*, reference compound]
